Experimental data taken from PMC6627486, “Ipomoeassin F Binds Sec61α to Inhibit Protein Translocation” (Journal of the American Chemical Society, 2019).

Assays:
HCT-116 cells = experiment: Metabolic labelling of nascent proteins in HCT116 cells; format: cell-based, human
Experimental: Metabolic Labelling Assays in HCT116 Cells
HCT116 cells were counted using an automated cell counter (BioRad TC20) immediately prior to each experiment. 3 ml of HCT116 cells at a density of 0.166x10^6 cells/mL were seeded to 6-well plates (0.5x10^6 cells/well) and then incubated at 37 °C and 5% CO 2 for 24 h. The compounds were dissolved in DMSO to make drug stocks (10 mM). The stock solutions were diluted with DMEM high glucose culture medium lacking methionine and cysteine to make a fresh working solution immediately prior to each test. Cells were washed twice and 1ml of fresh DMEM lacking methionine and cysteine was added to each well.
Subsequently, the cells were treated with 250 µl of compound solutions in a total volume of 1 ,250 µl/well.
The plate was then incubated at 37 °C and 5% CO 2 for 30 min before 100 µCi 35S-labelled methionine/cysteine was added (Expre35s35s protein labelling mix). Plates were incubated for a further 30 min, then media collected and cells harvested by scraping after four washes in ice-cold PBS. Total protein was acquired by RIPA extraction from the cell pellet, cytoplasmic fraction was acquired by partial permeabilization of the outer cell membranes with 0.15% Digitonin followed by centrifugation, secreted proteins were acquired by TCA precipitation of the media. […]

[1] = system: several cancer-derived cell lines; design: method as in PMID 19697385; details: cited from earlier work
[2] = biological target: T1, Sec61-mediated protein translocation (Canis lupus familiaris, UniProt P38377); experiment: In vitro translation and Sec61-dependent translocation into ER microsomes; format: biochemical, canine
T1 construct: ER microsomes derived from canine pancreas; from tissue; host or cells: canine pancreas ER microsomes (nuclease-treated)
T1 sequence (P38377 whole entry): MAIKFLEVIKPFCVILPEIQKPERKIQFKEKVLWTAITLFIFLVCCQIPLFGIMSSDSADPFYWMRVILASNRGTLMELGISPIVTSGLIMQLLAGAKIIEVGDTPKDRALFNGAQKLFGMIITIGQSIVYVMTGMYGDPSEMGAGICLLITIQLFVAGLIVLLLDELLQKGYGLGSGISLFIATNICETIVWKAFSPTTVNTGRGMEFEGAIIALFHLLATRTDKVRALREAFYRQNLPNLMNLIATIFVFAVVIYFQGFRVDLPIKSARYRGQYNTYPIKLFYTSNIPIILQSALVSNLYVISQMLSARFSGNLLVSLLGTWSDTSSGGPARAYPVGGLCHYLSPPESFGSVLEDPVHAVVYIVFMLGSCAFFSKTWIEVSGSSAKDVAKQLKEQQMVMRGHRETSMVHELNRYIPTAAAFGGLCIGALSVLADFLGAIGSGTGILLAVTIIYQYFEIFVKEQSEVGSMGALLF
T1 sequence (P60467 whole entry, further chain): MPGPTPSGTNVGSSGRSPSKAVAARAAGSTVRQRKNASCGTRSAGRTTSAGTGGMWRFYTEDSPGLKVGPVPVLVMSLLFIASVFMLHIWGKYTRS
T1 sequence (P60058 whole entry, further chain): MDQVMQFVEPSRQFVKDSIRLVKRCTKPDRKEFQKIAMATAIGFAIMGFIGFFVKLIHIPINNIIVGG
From the text: (§1) In Vitro Membrane Translocation Assays.
(§2) Unless otherwise stated, all cDNAs are of human origin and as previously described: CytB5OPG2,16 GypC,17 ppαF (Saccharomyces cerevisiae),16 ppcecAOPG2 (Hyalophora cecropia),16 PPL (Bos Taurus),16 Sec61βOPG216 and VCAM1.17 Ii encodes residues 17 to 232 of the short form of human HLA class II histocompatibility antigen gamma chain (Ii; P04232, isoform 2). Linear DNA templates were generated by PCR and transcribed into RNA using T7 or SP6 polymerase (Promega).
(§3) In vitro translation and translocation into ER microsomes
(§4) Translation reactions (20 μL) were performed in nuclease-treated rabbit reticulocyte lysate (Promega) in the presence of EasyTag EXPRESS 35S Protein Labelling Mix containing [35S] methionine (Perkin Elmer) (0.533 MBq; 30.15 TBq/mmol). Amino acids minus methionine (Promega) were added to 25 µM each, […]
(§5) equivalent volume of DMSO, and nuclease-treated ER microsomes (from stock with OD280 = 44/mL) were added to 6.5% (v/v). Lastly, 10% volume of in vitro transcribed mRNA (from 200-1000 ng/μL stocks) encoding the relevant precursor protein was added and translation reactions performed for 20 min at 30°C. Following incubation with 0.1 mM puromycin for 5 min at 30°C to ensure translational termination and ribosome release, membrane-associated fractions were isolated by centrifugation through an 80 μL high-salt cushion (0.75 M sucrose, 0.5 M KOAc, 5 mM Mg(OAc)2, 50 mM Hepes-KOH, pH 7.9) at 100,000 x g for 10 min at 4°C in a TLA100 rotor (Beckmann). Membrane pellets were suspended directly in SDS (sodium dodecyl sulphate) sample buffer (0.02% bromophenol blue, 62.5 mM, 4% (w/v) SDS, 10% (v/v) glycerol, pH 7.6, 1 M dithiothreitol) and, where indicated, treated with 1,000 U of Endoglycosidase H (New England Biolabs) for 30 min at 37°C prior to analysis. All samples were denatured for 10 min at 70°C prior to resolution by SDS-PAGE (12% or 16% polyacrylamide gels, 120 V, 120 min), gels were fixed (20% MeOH, 10% AcOH) for 5 min, dried (BioRad gel dryer) for 2 h at 65°C and, following exposure to a phosphorimaging plate for 24-72 h, radiolabelled products were visualised using a Typhoon FLA-7000 (GE Healthcare).
(§6) Quantitative analysis of Ii membrane insertion was performed using AIDA v.5.0 (Raytest Isotopenmeβgeräte) whereby the ratio of the signal intensity for the 2Gly/0Gly forms was used as a read-out to estimate efficiency of integration into the ER membrane. This value was then expressed relative to the matched DMSO control in order to derive the mean relative ER insertion from three independent experiments (n=3). Statistical significance of the effectiveness of Ipom-F analogues (RM one-way ANOVA) was determined using Tukey’s multiple comparisons test. IC50 value estimates were determined using non-linear regression to fit data to a curve of variable slope (four parameters) using the least squares fitting method in which the bottom and top plateaus of the curve were defined as 0% and 100% respectively. The differences between the estimated IC50 values for the three compounds analysed were statistically significant (****) according to the extra-sum-of-squares F test. Statistical analyses and IC50 estimates were performed using Prism 7.0d (GraphPad) with statistical significance given as n.s., non - significant and ****, P < 0.0001.
(§7) U2-OS secNLuc-ATZ Secretion and Cell Viability Assays

[3] = system: Sec61-mediated protein translocation; experiment: as above; format: biochemical, canine
From the text: as §1, §2, §3, §4, §5, §6, §7

## C/C=C(\C)C(=O)O[C@@H]1[C@@H](O)[C@@H]2O[C@H]3[C@H](O[C@@H](CCCCC)CCCCCCC(=O)CCC(=O)OC[C@@H](O2)[C@H]1OC(=O)/C=C/c1ccccc1)O[C@H](C)[C@H](OC(C)=O)[C@@H]3O [ipomoeassin F]
HCT-116 cells; HCT-116, 100 nM, 35S labelling
  inhibition of production of secreted proteins: strong inhibition
HCT-116 cells; HCT-116, 35S labelling
  nascent protein biogenesis in total cellular lysates and cytosolic fractions: lack of inhibition
[1]
  IC50 values against several cancer-derived cell lines: single-digit nanomolar
[2]
  IC50: ~50 nM
  membrane insertion of type I and type II integral membrane proteins (VCAM1, Ii): potently inhibits
  translocation of short secretory protein prepro-cecropin A: only a marginal impact
[2]; 1 μM compound
  translocation of secretory proteins bovine preprolactin and yeast prepro-alpha-factor: almost completely prevented
[2]; type II membrane protein Ii, ER microsomes
  inhibition of Ii membrane insertion: strongly inhibit membrane insertion
[3]
  membrane insertion of type III integral membrane protein glycophorin C: no effect
[3]; Sec61-independent control substrates
  in vitro integration of tail-anchored proteins (Sec61βOPG2, Cytb5OPG2): unaffected
